Measured values from ChEMBL document CHEMBL5303573, “Mapping human microbiome drug metabolism by gut bacteria and their genes” (Nature, 2019).

What was measured:
[1] = The drug is tested on Bifidobacterium longum subsp. Infantis strain: CCUG52486 for biotransformation. The drug concentrations were measured before and after a 12-h incubation by liquid-chromatography-coupled mass spectrometry (LC–MS); details: 2 µM
[2] = The drug is tested on Collinsella aerofaciens strain: ATCC25986 for biotransformation. The drug concentrations were measured before and after a 12-h incubation by liquid-chromatography-coupled mass spectrometry (LC–MS); details: 2 µM
[3] = The drug is tested on Bacteroides caccae strain: ATCC43185 for biotransformation. The drug concentrations were measured before and after a 12-h incubation by liquid-chromatography-coupled mass spectrometry (LC–MS); details: 2 µM
[4] = The drug is tested on Bacteroides cellulosilyticus strain: DSM14838 for biotransformation. The drug concentrations were measured before and after a 12-h incubation by liquid-chromatography-coupled mass spectrometry (LC–MS); details: 2 µM
[5] = The drug is tested on Anaerococcus hydrogenalis strain: DSM7454 for biotransformation. The drug concentrations were measured before and after a 12-h incubation by liquid-chromatography-coupled mass spectrometry (LC–MS); details: 2 µM
[6] = The drug is tested on Clostridium sp. strain: fecal isolate for biotransformation. The drug concentrations were measured before and after a 12-h incubation by liquid-chromatography-coupled mass spectrometry (LC–MS); details: 2 µM
[7] = The drug is tested on Clostridium symbiosum strain: ATCC14940 for biotransformation. The drug concentrations were measured before and after a 12-h incubation by liquid-chromatography-coupled mass spectrometry (LC–MS); details: 2 µM
[8] = The drug is tested on Dorea formicigenerans strain: ATCC27755 for biotransformation. The drug concentrations were measured before and after a 12-h incubation by liquid-chromatography-coupled mass spectrometry (LC–MS); details: 2 µM
[9] = The drug is tested on Eubacterium ventriosum strain: ATCC27560 for biotransformation. The drug concentrations were measured before and after a 12-h incubation by liquid-chromatography-coupled mass spectrometry (LC–MS); format: ADME; set-up: dose 2 uM, timepoint 0 vs 12 hours; details: 2 µM
[10] = The drug is tested on Ruminococcus gnavus strain: ATCC29149 for biotransformation. The drug concentrations were measured before and after a 12-h incubation by liquid-chromatography-coupled mass spectrometry (LC–MS); details: mediterraneibacter gnavus, 2 µM
[11] = The drug is tested on Ruminococcus lactaris strain: ATCC29176 for biotransformation. The drug concentrations were measured before and after a 12-h incubation by liquid-chromatography-coupled mass spectrometry (LC–MS); details: 2 µM
[12] = The drug is tested on Subdoligranulum variabile strain: DSM15176 for biotransformation. The drug concentrations were measured before and after a 12-h incubation by liquid-chromatography-coupled mass spectrometry (LC–MS); details: 2 µM
[13] = The drug is tested on Edwardsiella tarda strain: ATCC23685 for biotransformation. The drug concentrations were measured before and after a 12-h incubation by liquid-chromatography-coupled mass spectrometry (LC–MS); details: 2 µM
[14] = The drug is tested on Escherichia coli strain: BW25113 for biotransformation. The drug concentrations were measured before and after a 12-h incubation by liquid-chromatography-coupled mass spectrometry (LC–MS); details: 2 µM
[15] = bifidobacterium adolescentis, 12 h, 2 µM
Description: The drug is tested on Bifidobacterium adolescentis strain: ATCC 15703 for biotransformation. The drug concentrations were measured before and after a 12-h incubation by liquid-chromatography-coupled mass spectrometry (LC–MS)

[16] = bacteroides fragilis, 12 h, 2 µM
Description: The drug is tested on Bacteroides fragilis strain: NCTC 9343 for biotransformation. The drug concentrations were measured before and after a 12-h incubation by liquid-chromatography-coupled mass spectrometry (LC–MS)

[17] = bacteroides fragilis, 12 h, 2 µM; remark: listed apart in the source
Description: The drug is tested on Bacteroides fragilis strain: 3397 (T10) for biotransformation. The drug concentrations were measured before and after a 12-h incubation by liquid-chromatography-coupled mass spectrometry (LC–MS)

[18] = bacteroides fragilis, 12 h, 2 µM; remark: listed apart in the source
Description: The drug is tested on Bacteroides fragilis strain: DS-208 for biotransformation. The drug concentrations were measured before and after a 12-h incubation by liquid-chromatography-coupled mass spectrometry (LC–MS)

[19] = parabacteroides distasonis, 12 h, 2 µM
Description: The drug is tested on Parabacteroides distasonis strain: ATCC8503 for biotransformation. The drug concentrations were measured before and after a 12-h incubation by liquid-chromatography-coupled mass spectrometry (LC–MS)

[20] = anaerostipes sp., 12 h, 2 µM
Description: The drug is tested on Anaerostipes sp. strain: fecal isolate for biotransformation. The drug concentrations were measured before and after a 12-h incubation by liquid-chromatography-coupled mass spectrometry (LC–MS)

| Compound | Bacterial Biotransformation [1] | Bacterial Biotransformation [2] | Bacterial Biotransformation [3] | Bacterial Biotransformation [4] | Bacterial Biotransformation [5] | Bacterial Biotransformation [6] | Bacterial Biotransformation [7] | Bacterial Biotransformation [8] | Bacterial Biotransformation [9] | Bacterial Biotransformation [10] | Bacterial Biotransformation [11] | Bacterial Biotransformation [12] | Bacterial Biotransformation [13] | Bacterial Biotransformation [14] | Bacterial Biotransformation [15] | Bacterial Biotransformation [16] | Bacterial Biotransformation [17] | Bacterial Biotransformation [18] | Bacterial Biotransformation [19] | Bacterial Biotransformation [20] |
| --- | --- | --- | --- | --- | --- | --- | --- | --- | --- | --- | --- | --- | --- | --- | --- | --- | --- | --- | --- | --- |
| CCCCCNC(=N)N/N=C/c1c[nH]c2ccc(OC)cc12.O=C(O)/C=C\C(=O)O [TEGASEROD MALEATE] | Compound NOT metabolized | Compound NOT metabolized | Compound NOT metabolized | Compound NOT metabolized | Compound NOT metabolized | Compound NOT metabolized | Compound NOT metabolized | Compound NOT metabolized | Compound NOT metabolized | Compound NOT metabolized | Compound NOT metabolized | Compound NOT metabolized | Compound NOT metabolized | Compound NOT metabolized | Compound NOT metabolized | Compound NOT metabolized | Compound NOT metabolized | Compound NOT metabolized | Compound NOT metabolized | Compound NOT metabolized |
| CS(=O)(=O)O.O.O.O.O=C1Cc2cc(CCN3CCN(c4nsc5ccccc45)CC3)c(Cl)cc2N1 [ZIPRASIDONE MESYLATE] | Compound NOT metabolized | Compound NOT metabolized | Compound NOT metabolized | Compound NOT metabolized | Compound NOT metabolized | Compound NOT metabolized | Compound NOT metabolized | Compound NOT metabolized | Compound NOT metabolized | Compound NOT metabolized | Compound NOT metabolized | Compound NOT metabolized | Compound NOT metabolized | Compound metabolized | – | Compound NOT metabolized | Compound NOT metabolized | Compound NOT metabolized | Compound metabolized | Compound NOT metabolized |
| C[C@]12CCC(=O)C=C1[C@@H]1C[C@@H]1[C@H]1[C@@H]3[C@@H]4C[C@@H]4[C@@]4(CCC(=O)O4)[C@@]3(C)CC[C@@H]12 [DROSPIRENONE] | Compound NOT metabolized | Compound NOT metabolized | Compound NOT metabolized | Compound NOT metabolized | Compound NOT metabolized | Compound NOT metabolized | Compound NOT metabolized | Compound NOT metabolized | Compound NOT metabolized | Compound metabolized | Compound NOT metabolized | Compound NOT metabolized | Compound NOT metabolized | Compound NOT metabolized | Compound NOT metabolized | Compound metabolized | Compound NOT metabolized | Compound NOT metabolized | Compound NOT metabolized | Compound NOT metabolized |
| OC(CCN1CCCCC1)(c1ccccc1)C1CCCCC1 (stereo unspecified) [TRIHEXYPHENIDYL] | Compound NOT metabolized | Compound NOT metabolized | Compound NOT metabolized | Compound NOT metabolized | Compound NOT metabolized | Compound metabolized | Compound NOT metabolized | Compound NOT metabolized | Compound NOT metabolized | Compound NOT metabolized | Compound NOT metabolized | Compound NOT metabolized | Compound NOT metabolized | Compound NOT metabolized | Compound NOT metabolized | Compound NOT metabolized | Compound NOT metabolized | Compound NOT metabolized | Compound NOT metabolized | Compound NOT metabolized |
| CCCc1nn(C)c2c(=O)[nH]c(-c3cc(S(=O)(=O)N4CCN(C)CC4)ccc3OCC)nc12.O=C(O)CC(O)(CC(=O)O)C(=O)O [SILDENAFIL CITRATE] | Compound NOT metabolized | – | Compound NOT metabolized | Compound NOT metabolized | Compound metabolized | Compound metabolized | Compound NOT metabolized | Compound NOT metabolized | Compound NOT metabolized | Compound NOT metabolized | Compound NOT metabolized | Compound NOT metabolized | Compound NOT metabolized | Compound NOT metabolized | Compound NOT metabolized | Compound metabolized | Compound NOT metabolized | Compound NOT metabolized | Compound NOT metabolized | Compound NOT metabolized |
| CC[C@@]1(O)C(=O)OCc2c1cc1n(c2=O)Cc2cc3c(CN(C)C)c(O)ccc3nc2-1 [TOPOTECAN] | Compound NOT metabolized | Compound NOT metabolized | Compound NOT metabolized | Compound NOT metabolized | Compound NOT metabolized | Compound NOT metabolized | Compound NOT metabolized | Compound NOT metabolized | Compound NOT metabolized | Compound NOT metabolized | Compound NOT metabolized | Compound NOT metabolized | Compound NOT metabolized | Compound NOT metabolized | Compound NOT metabolized | Compound NOT metabolized | Compound NOT metabolized | Compound NOT metabolized | Compound NOT metabolized | Compound NOT metabolized |
| CC(C)c1nc(CN(C)C(=O)N[C@H](C(=O)N[C@@H](Cc2ccccc2)C[C@H](O)[C@H](Cc2ccccc2)NC(=O)OCc2cncs2)C(C)C)cs1 [RITONAVIR] | Compound NOT metabolized | Compound NOT metabolized | Compound NOT metabolized | Compound NOT metabolized | Compound NOT metabolized | Compound metabolized | Compound NOT metabolized | Compound NOT metabolized | Compound NOT metabolized | Compound NOT metabolized | Compound NOT metabolized | Compound NOT metabolized | Compound NOT metabolized | Compound metabolized | – | Compound metabolized | Compound NOT metabolized | Compound metabolized | Compound NOT metabolized | Compound NOT metabolized |
| CCC(COC(=O)c1cc(OC)c(OC)c(OC)c1)(c1ccccc1)N(C)C.O=C(O)/C=C\C(=O)O (stereo unspecified) | Compound metabolized | – | Compound NOT metabolized | Compound NOT metabolized | Compound metabolized | Compound metabolized | Compound metabolized | Compound metabolized | Compound metabolized | Compound metabolized | Compound metabolized | Compound metabolized | Compound metabolized | Compound metabolized | Compound metabolized | Compound metabolized | Compound metabolized | Compound NOT metabolized | Compound metabolized | Compound metabolized |
